Series [1] relates to cat fleas. To be noted: ingestion by cat fleas; cited from earlier work.
Series [2] relates to chick embryo pelvic cartilage. The settings on record: cited from earlier work.
The test system of series [3] is rat cerebral microsomal preparations. To be noted: cited from earlier work.
Series [4] has as its system human platelets. To be noted: intact human platelets stimulated by thrombin or leukotriene B4; extracellular addition; cited from earlier work.
Series [5] concerns neutrophiles. The settings on record: intact neutrophiles stimulated by thrombin or leukotriene B4; extracellular addition; cited from earlier work.
Series [6] relates to human fibroblasts. The series can be described thus: H3Proline/H3Leucine incorporation in human fibroblasts (FIG. 5). It is filed as cell-based. To be noted: single dose, compared to untreated cells.
Series [7] concerns HIV. To be noted: cited from earlier work.
Series [8] deals with normal human fibroblasts. The series can be described thus: Cytotoxicity on normal human fibroblasts by MTT assay (FIG. 3). It is filed as cell-based. To be noted: 72 hours; for cytotoxic effects (MTT assay), in words: single dose, normal human fibroblasts, FIG. 3: increasing concentrations. The text has this: (§1) FIGS. 3-7 illustrate results of experiments designed to elucidate some of the biological properties that may be present in contemplated boron compounds/complexes. In these examples, we studied the action of two boron complexes: sodium fructo-borate (SFB) and sodium salicylato-borate (SSB), upon normal human fibroblasts, in comparison to untreated fibroblasts and ones treated with boric acid (BA, uncomplexed with any ligand). FIG. 3 depicts results of a single dose treatment of human fibroblasts with increasing concentrations of BA, SFB and SSB for 72 hours in order to determine their cytotoxic effects (by MTT assay).
(In general: Tetrazolium assays rely on reduction of a dye to a coloured formazan, in cell work by metabolically active cells.)

The test system of series [9] is normal human fibroblasts. The experiment in a line: H3Proline incorporation in human fibroblasts (FIG. 4). Format: cell-based. To be noted: single dose, 72 hours, vs BA, SFB, SSB. The procedure: FIG. 4 is a graph depicting experimental results of H3Proline incorporation (in human fibroblasts) upon treatment with A, B, and C compared to untreated cells.
FIG. 4 depicts results from treatment of normal human fibroblasts with a single dose of BA, SFB and SSB for 72 hours, whereupon the final degree of incorporation of H3Proline was determined. The degree of H3Proline incorporation is a measure of the ongoing biosynthesis of collagen in treated cells.

The subject of series [10] is normal human fibroblasts. The series can be described thus: Collagen synthesis: ratio of H3Proline to H3Thymidine incorporation in human fibroblasts (FIG. 6). Format: cell-based. To be noted: single dose, 72 hours. The procedure: FIG. 6 is a graph depicting experimental results of increase of collagen synthesis (measured by determination of ratio between incorporation of H3Proline and H3Thymidine) in human fibroblasts by treating them with A, B and C, compared to untreated cells.
FIG. 6 depicts the results of a single dose treatment of normal human fibroblasts with the selected compounds for 72 hours, in which case the increase of collagen synthesis was calculated by ratio between incorporation of H3Proline over the incorporation of H3Thymidine under the same experimental conditions. In this experiment, SFB was best at the concentration of 1 ug/ml, while at the concentration of 10 ug/ml its activity was next to BA. […] These properties are of special value for skin-rejuvenation purposes.
(In general: Dividing cells build labelled thymidine or BrdU into new DNA.)

For series [11], the system named is normal human fibroblasts. The experiment in a line: Multi-parameter analysis of biological activity, labeling cells with tritiated Uridine, Thymidine, Leucine and Proline (FIG. 7). It is filed as cell-based. To be noted: labeling for 8 hours.
Source text: FIG. 7 is a graph depicting a multi-parameter analysis of biological activity of complex B.
as §1
FIG. 7 depicts a multi-parameter analysis of biological activity of SFB.

[12] abbreviates: same concentration, great molar excess of glucose in culture medium.

Entries after “also recorded” stand apart in the source; their conditions may differ.

With `OB(O)O` [BA, boric acid], in series [1], the larvicidal effects result is reported as “Larvicidal effects”. In addition, in series [2] (1-3% aqueous boric acid), the “intracellular synthesis of proteoglycans, collagen and TNF-alpha” value is recorded as “strongly decreases”; the “release of proteoglycans, collagen and TNF-alpha into the culture medium” value is listed as “induces release”. Further, in series [2] (setting [12]), the intracellular protein synthesis result was “does not decrease” and the “protein secretion into the culture medium” value was “still stimulates”.

Regarding `NCCOB(c1ccccc1)c1ccccc1` [Example 2-APB, 2-amonoethoxydiphenyl borate], in series [3], the “inhibition of Ins(1,4,5)P3-induced Ca release” value was “inhibited”. In addition, the “inhibition of cytosolic Ca rise” value in series [4] and in series [5] was “inhibited” each time.

As for `O=C1O[B-]2(OC(=O)c3ccccc3O2)Oc2ccccc21` [SSB, sodium salicylato-borate], the “preferred incorporation of H3Proline over H3Leucine, in words” value in [6] is “best performance”.

As for `CC(C)[C@@H](N)C(=O)O[C@H](C)[C@@H]1C/C=C\CC[C@H](O)C(C)(C)[C@@H]2CC[C@@H](C)[C@@]3(O2)O[B-]24O[C@@H](C(=O)O1)[C@]1(O[C@@H](CC[C@H]1C)C(C)(C)[C@H](O)CCC[C@@H]1C[C@H](OC(=O)[C@@H]3O2)[C@@H](C)O1)O4.[H+]` [boromycin], in series [7], the anti-HIV activity result is recorded as “anti-HIV antibiotic”.

As for `O.O.O.O.O=BOB1OB(OB=O)OB2OB([O-])OB([O-])OB(O1)O2.[Na+].[Na+]` [disodium octaborate tetrahydrate], in series [1], the larvicidal effects entry is “Larvicidal effects”.

Consider `O.O.O.O.O.O.O.O.O.O.[Na+].[Na+].[O-]B1OB2OB([O-])OB(O1)O2` [sodium borate, reference compound], for which the “cytotoxic effects (MTT assay), in words” value in series [8] is “minimal cytotoxic effects”.

Take sodium fructo-borate [SFB]: the “fold less toxic than BA (boric acid)” value in [8] (100 ug/ml, MTT assay) was roughly 4 times. Further, the “cytotoxic effects (MTT assay), in words” value is reported as “least toxic; also recorded: least toxicity” in series [8], “minimal cytotoxic effects” in [8] (listed as sodium fructo-borate) and “considerably less toxic than boric acid” in series [8] (listed as sodium fructoborate). The “degree of incorporation of H3Proline (measure of collagen biosynthesis), in words” value in series [9] is “most beneficial effect”. Further, the “preferred incorporation of H3Proline over H3Leucine, in words” value in series [6] is given as “quite close”. In addition, the results for the “increase of collagen synthesis (ratio H3Proline/H3Thymidine incorporation), in words” value in [10] (1 ug/ml) and in [10] (10 ug/ml) were “best” and “next to BA”, respectively. Also, in series [11], the “overall effects (tritiated Uridine, Thymidine, Leucine and Proline labeling), in words” value was “quite favorable and beneficial”.

The record behind these values is patent US6080425A, “Boron compounds and complexes as skin-rejuvenating agents” (TopGene, Inc., priority 1998, dated 2000).
